From US20230248745A1, “SILVER ENHANCED CANNABINOID ANTIBIOTICS” (priority 2020, published 2023)
Entries after “also recorded” stand apart in the source; their conditions may differ. Read-outs that look alike come from different tables or passages of the source.

Columns and labels:
MRSA (USA300) = assay: Checkerboard assay, FICI of cannabinoid/silver combinations; assay type: cell-based, Methicillin-resistant Staphylococcus aureus
Method: (§1) Antibacterial growth was measured using a checkerboard analysis or qualitatively using agar plates with zones of inhibition. Viability was measured by the number of colony forming units (CFU) over time.
(§2) Using checkerboard analysis, the fractional inhibitory concentration index (FICI) was calculated for the 96-well plate test to illustrate synergy.
(§3) MRSA strain, USA300, was cultured in Luria-Bertani (LB) medium and inoculated at 37 C.
(§4) Cannabinoids or silver (expressed as the concentration of silver not the salt) were serially diluted 2-fold across the 96-well plate (Costar, catalog no. 3370) followed by addition of 100 μL of bacterial cultures with an OD600 of 0.0025. […] Wells turbidity were then analyzed using Varioskan™ microplate reader.
(§5) FICI was calculated in a checkerboard assay based on the turbidity of the wells. FIC of each agent was determined as the ratio of the minimal inhibitory concentration MIC of one agent in the presence of the other agent to the MIC of that agent alone. FICI was consequently computed as the sum of each agent's FIC.

E. coli strain K12 = assay: as above; assay type: cell-based, Escherichia coli; details: for FICI Silver Nanoparticles: Silver Nanoparticles in combination with the cannabinoid; for FICI Silver Sulfate: Silver Sulfate in combination with the cannabinoid
Method: as §1, §2
(§6) Escherichia coli (E. coli), strain K12, was cultured in Luria-Bertani (LB) medium and inoculated at 37 C.
as §4, §5

MRSA (strain USA300) [1] = assay: microbe, parasite or virus in culture; assay type: cell-based, Methicillin-resistant Staphylococcus aureus; details: agent alone, silver expressed as silver
From the text: In therapeutic applications, synergy between active ingredients occurs when an observed combined therapeutic effect is greater than the sum of therapeutic effects of individual active ingredients, or a new therapeutic effect is produced that the active ingredients could not produce alone. […] In this context, the enhancement of therapeutic effect may take the form of increased efficacy or potency and/or decreased adverse effects. The synergistic effect may be mediated in whole or in part by the pharmacokinetics and/or pharmacodynamics of the active ingredients in a subject, so that the amount and proportion of the ingredients in the formulation may be synergistic in vivo. This in vivo synergy may be effected with a formulation that includes the active ingredients in amounts and proportions that are also synergistic in in vitro assays of efficacy. As used herein, the term “synergistically effective amounts” accordingly refers to amounts that are synergistic in vivo and/or in vitro. A numeric quantification of synergy is often expressed as a fractional inhibitory concentration index (FICI), which represents the sum of the fractional inhibitory concentrations (FICs) of each drug tested, where the FIC is determined for each drug by dividing the minimum inhibitory concentration (MIC, the lowest concentration of the drug which prevents visible growth of the bacterium in a standard in vitro assay—standard colorometric assay based on resazurin) of each drug when used in combination by the MIC of each drug when used alone. In very general terms, a FICI lower or higher than 1 indicates positively correlated activity (at least additive or potentiation) or an absence of positive interactions, respectively. […] (as described and used by Joung D K et al. and Rakoliya K et al.)
as §4

MRSA (strain USA300) [2] = assay: Kill-curve test (CFU over time); assay type: cell-based, Methicillin-resistant Staphylococcus aureus; details: for MRSA growth by 24 hours: cannabinoid alone at ½×MIC
Method: as §1, §3
(§7) For each test tube, 1 mL of culture at OD600 of 0.005 was added to 1 mL of LB medium containing antibiotics to reach target sub-MIC concentrations of each compound. Samples of 100 μL was extracted from each tube at the determined time stamps followed by 10-fold serial dilutions. 10 μL of each dilution was then added on the LB agar plates that were subsequently incubated for 24 hours. Colonies were inspected and results quantified as log CFU/mL.

E. coli (strain K12) = assay: Kill-curve test (CFU over time); assay type: cell-based, Escherichia coli; details: for inhibitory effect on E. coli growth over 24 hours / inhibition of E. coli growth over 24 hours / inhibition of E. coli growth (summary): cannabinoid alone; for inhibitory effect on E. coli growth over 24 hours: 8 mg/L; for inhibition of E. coli growth over 24 hours: 16 mg/L; for inhibition of E. coli growth (summary): concentrations up to 16 mg/L
Method: as §1, §6, §7

MRSA (strain USA 300) = assay type: cell-based, Methicillin-resistant Staphylococcus aureus; details: for inhibition of bacterial growth (ring): single agent at 2% w/w to PVA, films and coated catheter sections, 24 hours
Method: PVA films were made by solvent casting using 33 μl drops of 2.5% PVA (88% hydrolyzed, 125 KDa molecular weight) mixed with CBC, CBG or CBGA (2% w/w to PVA). […] 3 mm sections of a urethral catheter (BARDEX® BARD®) were cut and coated with the same 33 μl volume of PVA/Silver/cannabinoid used to make films. Films and coated catheter sections were dried overnight in the dark. Five cavities were created in the LB agar plates containing MRSA (strain USA 300) at OD600 of 0.005. PVA films and catheters coated with PVA films were then placed in the cavities and moistened with 20 μL of deionized distilled water. Plates were incubated for 24 hours at 37° C.

[3] = Silver Nitrate in combination with the cannabinoid
[4] = cannabinoid with silver nitrate
[5] = cannabinoid with silver sulfate
[6] = cannabinoid ½×MIC + AgNP ⅛×MIC (5 mg/L)
[7] = 8 mg/L cannabinoid + 2.5, 1.25 and 0.625 mg/L AgSO4 (each)
[8] = Staphylococcus aureus, read-out: MIC
[9] = cannabinoid with silver nanoparticles
[10] = cannabinoid ½×MIC + silver nitrate 1 mg/L
[11] = cannabinoid ½×MIC + silver nitrate 5 and 8 mg/L

| Structure (SMILES) | FICI (MRSA (USA300); [3]) | interaction (interpretation of FICI) (MRSA (USA300); [4]) | FICI Silver Nanoparticles (E. coli strain K12) | FICI Silver Sulfate (E. coli strain K12) | interaction (interpretation of FICI) (E. coli strain K12; [5]) | MIC (MRSA (strain USA300) [1]) [mg/L] | kill-curve effect (CFU) (MRSA (strain USA300) [2]) | MRSA growth by 24 hours (MRSA (strain USA300) [2]) | kill-curve effect (CFU) (MRSA (strain USA300) [2]; [6]) | time of onset of bactericidal effect (MRSA (strain USA300) [2]; [6]) [h] | time through which bactericidal effect persisted (MRSA (strain USA300) [2]; [6]) [h] | time through which bacterial growth was inhibited (E. coli (strain K12)) [h] | time through which the effect persisted (E. coli (strain K12)) [h] | time to the reduction in E. coli CFU (E. coli (strain K12)) [h] | time through which E. coli growth was inhibited (E. coli (strain K12); [7]) [h] | time to the reduction in E. coli CFU (E. coli (strain K12); [7]) [h] | inhibitory effect on E. coli growth over 24 hours (E. coli (strain K12)) | inhibition of E. coli growth over 24 hours (E. coli (strain K12)) | inhibition of E. coli growth (summary) (E. coli (strain K12)) | MIC (MRSA (strain USA300) [1]; [8]) [mg/L] | further results |
| --- | --- | --- | --- | --- | --- | --- | --- | --- | --- | --- | --- | --- | --- | --- | --- | --- | --- | --- | --- | --- | --- |
| CCCCCc1cc2c(c(O)c1C(=O)O)C=CC(C)(CCC=C(C)C)O2 (centres unmarked) [CBCA, cannabichromenic acid] | 2 | no improved antibiotic affect | 1.25 | 0.50 | synergistic | 2 | greater bactericidal effect | returned to levels equal to that of 0×MIC treatment | rapid bactericidal effect | 2 | 24 | 24 | 24 | ≤ 4 | 24 | ≤ 6 | failed to achieve any inhibitory effect | failed to achieve any inhibition | fail to achieve any detectable inhibition |  | time of full elimination of CFU (MRSA (strain USA300) [2]; [6]): 4 h |
| C=C(C)[C@@H]1CCC(C)=C[C@H]1c1c(O)cc(CCCCC)cc1O [CBD, cannabidiol, reference compound] | 2 | no improved antibiotic affect | 1.25 | 1 | not observed |  |  | returned to levels equal to that of 0×MIC treatment | rapid bactericidal effect | 2 |  |  |  |  |  |  |  | no inhibition | fail to achieve any detectable inhibition | 2 | MRSA growth over 24 hours compared to cannabinoid alone (MRSA (strain USA300) [2]; [6]): substantive decrease; inhibition of E. coli growth over 24 hours by the combination (E. coli (strain K12); 16 mg/L cannabinoid + 2.5 mg/L AgSO4): did not result in a substantial inhibition; also recorded: no increase in antimicrobial activity |
| CCCCCc1cc(O)c(C/C=C(\C)CCC=C(C)C)c(O)c1 [CBG, cannabigerol] | 0.625 | partially synergistic | 1.25 | 1 | not observed |  | highly comparable bactericidal effect | returned to levels equal to that of 0×MIC treatment | rapid, full bactericidal effect | 2 | 24 |  |  |  |  |  |  |  |  | 2 | FICI (MRSA (USA300); Silver Nanoparticles in combination with the cannabinoid): 0.625; interaction (interpretation of FICI) (MRSA (USA300); [9]): partial synergy; time for which bactericidal effect persisted (MRSA (strain USA300) [2]): 24 h; kill-curve effect (CFU) (MRSA (strain USA300) [2]; cannabinoid ¼×MIC + silver nitrate 5 and 8 mg/L): perceptibly bactericidal; kill-curve effect (CFU) (MRSA (strain USA300) [2]; cannabinoid ½×MIC + AgNP 1/160×MIC (0.25 mg/L)): bactericidal effect which was greater than that seen with ½×MIC CBG alone; kill-curve effect (CFU) (MRSA (strain USA300) [2]; [10]): bactericidal effect; time for which bactericidal effect remained (MRSA (strain USA300) [2]; [10]): up to 6 hours; time of onset of bactericidal effect (MRSA (strain USA300) [2]; [10]): 2 h; kill-curve effect (CFU) (MRSA (strain USA300) [2]; [11]): fully bactericidal effect; time of onset of bactericidal effect (MRSA (strain USA300) [2]; [11]): 2 h; time through which bactericidal effect remained (MRSA (strain USA300) [2]; [11]): 24 h; antibiotic effect of combination compared with silver nanoparticles alone (MRSA (strain USA 300)): increased antibiotic effect; inhibition of bacterial growth (ring) (MRSA (strain USA 300)): some level of inhibition |
| O=[N+]([O-])[O-].[Ag+] [silver nitrate, reference compound] |  |  |  |  |  | 16 |  |  |  |  |  |  |  |  |  |  |  |  |  |  | bacterial growth at 24 hours (MRSA (strain USA300) [2]; silver nitrate alone, 1 mg/L): full bacterial growth had occurred; duration of bacterial growth inhibition (MRSA (strain USA300) [2]; silver nitrate alone, 5 mg/L): 4 h; duration of bacterial growth inhibition (MRSA (strain USA300) [2]; silver nitrate alone, 8 mg/L): 6 h; inhibition of bacterial growth (ring) (MRSA (strain USA 300)): some level of inhibition; inhibition of bacterial growth (ring) (MRSA (strain USA 300); listed as Silver nitrate): strong inhibition |
| C=C(C)[C@@H]1CCC(C)=C[C@H]1c1c(O)cc(CCCCC)c(C(=O)O)c1O [CBDA, cannabidiolic acid] | 2 | no improved antibiotic affect | 0.73 | 0.52 | potentiation |  |  |  |  |  |  | 24 | 24 | ≤ 4 | 24 | ≤ 6 | failed to achieve any inhibitory effect | failed to achieve any inhibition | fail to achieve any detectable inhibition |  | interaction (interpretation of FICI) (E. coli strain K12; [9]): potentiation |
